In one series the test system is EC219 cells. Kind of series: Extracellular release of the γ-secretase inhibitor from prodrugs by EC219 endothelial cells. Conditions: HEK293, 215/F2, HK2 and EC219 cells, 20 μM in PBS, 19 h. It counts as in vitro ADME, rat. As to the method: FIG. 2A. Extracellular release of amine-SecrI (11a) metabolites for α-Glu- and γ-Glu-secretase inhibitor prodrugs. The prodrugs were added to the cells for 19 h, then the supernatants were harvested and analyzed for SecrI (8), amine-SecrI (11a), the prodrugs 13a, 13b, 15a, 15b and (for 13a, 15a) also the correponding deacetylated metabolites.
Cpd added: 20 μM in PBS, 19 h incubation. SecrI (8) is stable when added to cells for 19 h; free SecrI (8) was never detected from any prodrug.
The preparation and characterization of rat brain-derived EC219 endothelial cells have been described in Juillerat-Jeanneret, L. et al. In Vitro Cell. Dev. Biol. 1992, 28A, 537-543. These cells express high levels of APA and γ-GT activities and can be used for determining kinetics in living cells, and were chosen as APA- and γ-GT-positive representative cell models. EC219 cells were grown in DMEM medium containing 1 g/l glucose, 10% heat-inactivated fetal calf serum (FCS, EuroClone, UK) supplemented with 100 U/mL penicillin and 100 μg/mL streptomycin (P/S) on uncoated cell culture plastic ware. The HEK293 and HK2 human kidney cells are available from the ATCC (American Tissue Culture Collection, Manassas, Va., USA). HEK293 cells were grown on uncoated cell culture plastic ware in Iscove modified Dulbecco medium (IMDM, Life Technologies) containing 10% FCS and P/S. HK2 cells were grown on uncoated cell culture plastic ware in DMEM/F-12 GlutaMAX medium (Gibco) containing 5% FCS, P/S, 1% ITS (1.0 mg/ml bovine insulin, 0.55 mg/ml human transferrin and 0.5 μg/ml sodium selenite, Sigma-Aldrich) and 5 ng/ml hydrocortisone. […] Then 75 μl of supernatant from each well was removed and the luciferase activity was determined by adding 25 μl of Steady-Glo luciferase assay reagent (Promega).
A first screen of the different γ-secretase prodrugs was performed in vitro to determine the cleavage rate of each compound and ex-vivo in mouse kidney tissues. Extracellular release of the γ-secretase inhibitor from prodrugs by human kidney cells (HEK293, HEK293-derived Notch-reporter 215/F2 cells28,39 and HK2 cells) as well as the rat brain-derived EC219 endothelial cells which express very high levels of APA and γ-GT activities were evaluated for liberating active inhibitors SecrI (8) or amine-SecrI (11a) (FIG. 2A).
All samples were analyzed using protein precipitation followed by LC-MS/MS analysis. […] One μL of the supernatant was analyzed by LC/MS. […]

For series [1], the target named is Notch signal transduction pathway. Kind of series: In vitro Notch signal transduction pathway activity assay (DR215/F2 luciferase reporter). It counts as cell-based, human. Conditions: for IC50 for blockade of the Notch pathway, range in words: DR215/F2 cell reporter assay; for pIC50: Homo sapiens, 215/F2 reporter cell line, 19 h, mean of at least 3 experiments. As to the method:
The compounds were dissolved in dimethyl sulfoxide (DMSO) at 10 mM stock solution, aliquoted and stored at −4° C. until use, then diluted in PBS or cell culture medium. In the experimental settings, controls containing increasing concentrations of DMSO, corresponding to the amount of DMSO of the diluted compounds were always included. For in vivo experiments, the compounds were dissolved in 0.9% NaCl, incubated 30 min at 40° C. and sonicated for 5 min.
The requirement of proteolytic activation of the prodrugs to inhibit Notch cleavage by the γ-secretase, was investigated using a reporter assay (Table 3). The DR215/F2 cell line expresses a reporter construct designed to monitor the activity of the Notch signal transduction pathway. The DR215/F2 cell line 39 carries two transgenes: the firefly luciferase reporter gene expressed under the control of the Gal4 promoter and the human Notch1 activator gene fused with the yeast Gal4 transcription factor. This assay confirmed that the prodrugs were able to inhibit γ-secretase and the activation of the Notch pathway. The DR215/F2 cell reporter assay was also used to determine the IC50 for blockade of the Notch pathway by all the compounds designed and prepared.
The values were determined using the 215/F2 reporter cell line for Notch activation by the γ-secretase. All values are the mean of at least 3 experiments.
The preparation and characterization of rat brain-derived EC219 endothelial cells have been described in Juillerat-Jeanneret, L. et al. In Vitro Cell. Dev. Biol. 1992, 28A, 537-543. These cells express high levels of APA and γ-GT activities and can be used for determining kinetics in living cells, and were chosen as APA- and γ-GT-positive representative cell models. EC219 cells were grown in DMEM medium containing 1 g/l glucose, 10% heat-inactivated fetal calf serum (FCS, EuroClone, UK) supplemented with 100 U/mL penicillin and 100 μg/mL streptomycin (P/S) on uncoated cell culture plastic ware. The HEK293 and HK2 human kidney cells are available from the ATCC (American Tissue Culture Collection, Manassas, Va., USA). HEK293 cells were grown on uncoated cell culture plastic ware in Iscove modified Dulbecco medium (IMDM, Life Technologies) containing 10% FCS and P/S. HK2 cells were grown on uncoated cell culture plastic ware in DMEM/F-12 GlutaMAX medium (Gibco) containing 5% FCS, P/S, 1% ITS (1.0 mg/ml bovine insulin, 0.55 mg/ml human transferrin and 0.5 μg/ml sodium selenite, Sigma-Aldrich) and 5 ng/ml hydrocortisone. The human HEK293-derived DR215/F2 embryonic kidney cell line, stably transfected with pFR Luc and APP-Notch Gal (plasmid DR215) as described in WO 2006/061136 A2 and Brockhaus, M. Neuroreport 1998 9, 1481-1486, were maintained using IMDM with 10% FCS supplemented with P/S and kept under double-selection with 150 μg/ml G-418 and 50 μg/ml hygromycin B on coated (1:100 Poly-L-lysine) cell culture plastic ware. In this assay, the Notch-Gal4 protein is bound to the cell membrane via its trans-membrane domain. The Notch intracellular domain is released by proteolytic cleavage mediated by the γ-secretase and moves to the cell nucleus where it activates the reporter luciferase gene transcript. Inhibition of γ-secretase thus decreases luciferase activity. Briefly, cultures were grown in 96-well microplates to 80% confluence; the cells were then washed in PBS and exposed to decreasing concentrations of the γ-secretase-inhibitor analogues in complete IMDM culture medium without red phenol at 37° C. for 19 h. Then 75 μl of supernatant from each well was removed and the luciferase activity was determined by adding 25 μl of Steady-Glo luciferase assay reagent (Promega).
In general terms: Reporter assays use an easily measured gene product as a stand-in for the process of interest.

pIC50: −log10 of the molar value.

Take `C[C@H]1Oc2ccc(F)cc2N(CCO)C(=O)[C@H]1NC(=O)[C@@](C)(O)C(=O)NCC(F)(F)C(F)(F)F` [Compound 8, N-[(6R,7S)-2-Fluoro-9-(2-hydroxy-ethyl)-6-methyl-8-oxo-6,7,8,9-tetrahydro-5-oxa-9-aza-benzocyclohepten-7-yl]-2-(S)-hydroxy-2-methyl-N′-(2,2,3,3,3-pentafluoro-propyl)-malonamide]: in the series with EC219 cells, the “stability when added to cells” value is listed as “stable”. Further, in series [1], the “IC50 for blockade of the Notch pathway, range in words” value (“IC50 for blockade” below) is reported as “low nanomolar range” and the pIC50 (commonly −log10 of the IC50, conventionally taken in molar units) is 8.36.
On to `C[C@H]1Oc2ccc(F)cc2N(CCOC(=O)NCCN)C(=O)[C@H]1NC(=O)[C@@](C)(O)C(=O)NCC(F)(F)C(F)(F)F.Cl` [Compound 11a, 2-((2R,3S)-7-Fluoro-3-((S)-2-hydroxy-2-methyl-3-oxo-3-(2,2,3,3,3-pentafluoropropylamino)propanamido)-2-methyl-4-oxo-3,4-dihydrobenzo[b][1,4]oxazepin-5(2H)-yl)ethyl 2-aminoethylcarbamate hydrochloride], for which, in series [1], the “IC50 for blockade” value was “low nanomolar range” and the pIC50 was 7.34.
Take `CC(=O)N[C@@H](CCC(=O)NCCNC(=O)OCCN1C(=O)[C@@H](NC(=O)[C@@](C)(O)C(=O)NCC(F)(F)C(F)(F)F)[C@@H](C)Oc2ccc(F)cc21)C(=O)O` [Compound 13a, (S)-2-acetamido-5-(2-((2-((2R,3S)-7-fluoro-3-((S)-2-hydroxy-2-methyl-3-oxo-3-(2,2,3,3,3-pentafluoropropylamino)propanamido)-2-methyl-4-oxo-3,4-dihydrobenzo[b][1,4]oxazepin-5(2H)-yl)ethoxy)carbonylamino)ethylamino)-5-oxopentanoic acid]: the “hydrolysis by γ-GT” value in the series on EC219 cells was “not hydrolyzed by γ-GT”. Further, in series [1], the “IC50 for blockade” value is listed as “μM range” and the negative logarithm of the IC50 (pIC50) was 5.54.
As for `CC(=O)N[C@@H](CCC(=O)O)C(=O)NCCNC(=O)OCCN1C(=O)[C@@H](NC(=O)[C@@](C)(O)C(=O)NCC(F)(F)C(F)(F)F)[C@@H](C)Oc2ccc(F)cc21` [Compound 15a, (S)-4-acetamido-5-(2-((2-((2R,3S)-7-fluoro-3-((S)-2-hydroxy-2-methyl-3-oxo-3-(2,2,3,3,3-pentafluoropropylamino)propanamido)-2-methyl-4-oxo-3,4-dihydrobenzo[b][1,4]oxazepin-5(2H)-yl)ethoxy)carbonylamino)ethylamino)-5-oxopentanoic acid], in the series with EC219 cells, the “substrate for APA” value is reported as “not a substrate for this enzyme”. Also, in series [1], the “IC50 for blockade” value was “high nM range” and the pIC50 is 6.20.

Source of the values: patent US10632127B2, “Targeted notch pathway inhibitors” (Hoffmann-La Roche Inc., priority 2015, dated 2020).
